Measured values: patent publication US20110053773A1, “METHODS OF IMPROVING NUTRITIONAL VALUE OF PLANTS” (UNIVERSITY OF TENNESSEE RESEARCH FOUNDATION, priority 2009, published 2011)

Columns and labels:
kale 'Red Russian' [1] = assay: Visual injury of kale after insecticide, fungicide, PGRs, safeners (Example 4)
Procedure, shortened: (§1)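 Postemergence greenhouse applications of chlorpyrifos, chlorothalonil, mepiquat-chloride, paclobutrazol, napthalic anhydride or isoxadifen-ethyl. Injury rated visually for phytotoxicity, chlorosis and stunting on a 0–100% scale (0 = no response, 100 = plant death). Plants harvested ~4 weeks after treatment, pooled over replicates for nutrient content analysis.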

kale ‘Red Russian’ = assay: Yield, fresh weight of kale after insecticide, fungicide and PGRs (Example 4, Table 12); assay type: in vivo; conditions: 28 DA-A, Untreated Check 106.9
Procedure, shortened: as §1

basil ‘Genovese’ = assay: Yield, fresh weight of basil after insecticide, fungicide, PGRs and safeners (Example 4, Table 10); assay type: in vivo; conditions: DA-A, check 31.8
Procedure, shortened: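 Greenhouse postemergence applications of chlorpyrifos, chlorothalonil, mepiquat-chloride, paclobutrazol, napthalic anhydride or isoxadifen-ethyl. Visual injury (phytotoxicity, chlorosis, stunting) scored 0–100%, 0 = no response, 100 = plant death. Harvest about 4 weeks after treatment; replicates pooled for protein, mineral, amino acid, fiber and fatty acid analysis.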

basil 'Genovese' = assay: Visual injury of basil after insecticide, fungicide, PGRs, safeners (Example 4)
Procedure, shortened: as §1

kale 'Red Russian' [2] = assay: Content analysis of kale: protein, amino acids, fiber, fatty acids, minerals (Example 4, Tables 12-14); assay type: in vivo; conditions: 28 DA-A
Procedure, shortened: as §1

[3] = 7 DA-A, rates g ai/ha: chlropyrifos 1120, chlorothalonil 2630, paclobutrazol 3.23, mepiquat-chloride 12.3, + NIS 0.25 % v/v
[4] = 7 DA-A, rates g ai/ha: chlropyrifos 3370, chlorothalonil 7900, paclobutrazol 9.7, mepiquat-chloride 37, + NIS 0.25 % v/v
[5] = 14 DA-A, rates g ai/ha: chlropyrifos 1120, chlorothalonil 2630, paclobutrazol 3.23, mepiquat-chloride 12.3, + NIS 0.25 % v/v
[6] = 14 DA-A, rates g ai/ha: chlropyrifos 3370, chlorothalonil 7900, paclobutrazol 9.7, mepiquat-chloride 37, + NIS 0.25 % v/v
[7] = 28 DA-A, rates g ai/ha: chlropyrifos 1120, chlorothalonil 2630, paclobutrazol 3.23, mepiquat-chloride 12.3, + NIS 0.25 % v/v
[8] = 28 DA-A, rates g ai/ha: chlropyrifos 3370, chlorothalonil 7900, paclobutrazol 9.7, mepiquat-chloride 37, + NIS 0.25 % v/v
[9] = rates g ai/ha: chlropyrifos 1120, chlorothalonil 2630, paclobutrazol 3.23, mepiquat-chloride 12.3, + NIS 0.25 % v/v
[10] = 7 DA-A, rates g ai/ha: chlropyrifos 1120, chlorothalonil 2630, paclobutrazol 3.23, mepiquat-chloride 12.3, Isoxadifen 8, Napthalic anhydride 264, + NIS 0.25 % v/v
[11] = 7 DA-A, rates g ai/ha: chlropyrifos 3370, chlorothalonil 7900, paclobutrazol 9.7, mepiquat-chloride 37, Isoxadifen 16, Napthalic anhydride 527, + NIS 0.25 % v/v
[12] = 14 DA-A, rates g ai/ha: chlropyrifos 1120, chlorothalonil 2630, paclobutrazol 3.23, mepiquat-chloride 12.3, Isoxadifen 8, Napthalic anhydride 264, + NIS 0.25 % v/v
[13] = 14 DA-A, rates g ai/ha: chlropyrifos 3370, chlorothalonil 7900, paclobutrazol 9.7, mepiquat-chloride 37, Isoxadifen 16, Napthalic anhydride 527, + NIS 0.25 % v/v
[14] = 28 DA-A, rates g ai/ha: chlropyrifos 1120, chlorothalonil 2630, paclobutrazol 3.23, mepiquat-chloride 12.3, Isoxadifen 8, Napthalic anhydride 264, + NIS 0.25 % v/v
[15] = 28 DA-A, rates g ai/ha: chlropyrifos 3370, chlorothalonil 7900, paclobutrazol 9.7, mepiquat-chloride 37, Isoxadifen 16, Napthalic anhydride 527, + NIS 0.25 % v/v
[16] = first-listed rate g ai/ha: chlropyrifos ###, chlorothalonil ###, paclobutrazol 3.2, mepiquat-chloride 12, + NIS 0.3 % v/v

C[N+]1(C)CCCCC1 [mepiquat-chloride]
Phytotoxicity Chlorosis (kale 'Red Russian' [1]; [3]): 0% | Phytotoxicity General (kale 'Red Russian' [1]; [3]): 9% | Phytotoxicity Stunting (kale 'Red Russian' [1]; [3]): 4% | Phytotoxicity Chlorosis (kale 'Red Russian' [1]; [4]): 0% | Phytotoxicity General (kale 'Red Russian' [1]; [4]): 10% | Phytotoxicity Stunting (kale 'Red Russian' [1]; [4]): 1% | Phytotoxicity Chlorosis (kale 'Red Russian' [1]; [5]): 15% | Phytotoxicity General (kale 'Red Russian' [1]; [5]): 1% | Phytotoxicity Stunting (kale 'Red Russian' [1]; [5]): 16% | Phytotoxicity Chlorosis (kale 'Red Russian' [1]; [6]): 4% | Phytotoxicity General (kale 'Red Russian' [1]; [6]): 0% | Phytotoxicity Stunting (kale 'Red Russian' [1]; [6]): 3% | Phytotoxicity Chlorosis (kale 'Red Russian' [1]; [7]): 6% | Phytotoxicity General (kale 'Red Russian' [1]; [7]): 1% | Phytotoxicity Stunting (kale 'Red Russian' [1]; [7]): 9% | Phytotoxicity Chlorosis (kale 'Red Russian' [1]; [8]): 3% | Phytotoxicity General (kale 'Red Russian' [1]; [8]): 3% | Phytotoxicity Stunting (kale 'Red Russian' [1]; [8]): 10% | Yield Fresh weight (kale ‘Red Russian’; [9]): 101.8 grams | Yield Fresh weight (kale ‘Red Russian’; rates g ai/ha: chlropyrifos 3370, chlorothalonil 7900, paclobutrazol 9.7, mepiquat-chloride 37, + NIS 0.25 % v/v): 101.2 grams | Yield Fresh weight (basil ‘Genovese’; rates g ai/ha: chlropyrifos 1120, chlorothalonil 2630, paclobutrazol 3.23, mepiquat-chloride 12.3, Isoxadifen 8, Napthalic anhydride 264, + NIS 0.25 % v/v): 36.9 grams | Yield Fresh weight (basil ‘Genovese’; rates g ai/ha: chlropyrifos 3370, chlorothalonil 7900, paclobutrazol 9.7, mepiquat-chloride 37, Isoxadifen 16, Napthalic anhydride 527, + NIS 0.25 % v/v): 35.6 grams | Phytotoxicity Chlorosis (basil 'Genovese'; [10]): 3% | Phytotoxicity General (basil 'Genovese'; [10]): 2% | Phytotoxicity Stunting (basil 'Genovese'; [10]): 3% | Phytotoxicity Chlorosis (basil 'Genovese'; [11]): 5% | Phytotoxicity General (basil 'Genovese'; [11]): 2% | Phytotoxicity Stunting (basil 'Genovese'; [11]): 5% | Phytotoxicity Chlorosis (basil 'Genovese'; [12]): 7% | Phytotoxicity General (basil 'Genovese'; [12]): 5% | Phytotoxicity Stunting (basil 'Genovese'; [12]): 3% | Phytotoxicity Chlorosis (basil 'Genovese'; [13]): 2% | Phytotoxicity General (basil 'Genovese'; [13]): 5% | Phytotoxicity Stunting (basil 'Genovese'; [13]): 0% | Phytotoxicity Chlorosis (basil 'Genovese'; [14]): 2% | Phytotoxicity General (basil 'Genovese'; [14]): 2% | Phytotoxicity Stunting (basil 'Genovese'; [14]): 2% | Phytotoxicity Chlorosis (basil 'Genovese'; [15]): 2% | Phytotoxicity General (basil 'Genovese'; [15]): 0% | Phytotoxicity Stunting (basil 'Genovese'; [15]): 0% | Alanine, Percent Increase over the Untreated Check (on a % dry matter basis) (kale 'Red Russian' [2]; [16]): 5 % check | Aspartic acid, Percent Increase over the Untreated Check (on a % dry matter basis) (kale 'Red Russian' [2]; [16]): 6 % check | Cysteine, Percent Increase over the Untreated Check (on a % dry matter basis) (kale 'Red Russian' [2]; [16]): 6 % check | Glutamic acid, Percent Increase over the Untreated Check (on a % dry matter basis) (kale 'Red Russian' [2]; [16]): 11 % check | Glycine, Percent Increase over the Untreated Check (on a % dry matter basis) (kale 'Red Russian' [2]; [16]): 4 % check | Iso-leucine, Percent Increase over the Untreated Check (on a % dry matter basis) (kale 'Red Russian' [2]; [16]): 6 % check | Leucine, Percent Increase over the Untreated Check (on a % dry matter basis) (kale 'Red Russian' [2]; [16]): 4 % check | Lysine, Percent Increase over the Untreated Check (on a % dry matter basis) (kale 'Red Russian' [2]; [16]): 6 % check | Methionine, Percent Increase over the Untreated Check (on a % dry matter basis) (kale 'Red Russian' [2]; [16]): 4 % check | Proline, Percent Increase over the Untreated Check (on a % dry matter basis) (kale 'Red Russian' [2]; [16]): 8 % check | Threonine, Percent Increase over the Untreated Check (on a % dry matter basis) (kale 'Red Russian' [2]; [16]): 6 % check | Total Amino acids, Percent Increase over the Untreated Check (on a % dry matter basis) (kale 'Red Russian' [2]; [16]): 6 % check | Total Protein, Percent Increase over the Untreated Check (on a % dry matter basis) (kale 'Red Russian' [2]; [16]): 4 % check | Valine, Percent Increase over the Untreated Check (on a % dry matter basis) (kale 'Red Russian' [2]; [16]): 5 % check | ADF, Percent Increase Over the Untreated Check (on a % dry matter basis) (kale 'Red Russian' [2]; [9]): 7 % check | Calcium, Percent Increase Over the Untreated Check (on a % dry matter basis) (kale 'Red Russian' [2]; [9]): −4 % check | Copper, Percent Increase Over the Untreated Check (on a % dry matter basis) (kale 'Red Russian' [2]; [9]): 0 % check | Iron, Percent Increase Over the Untreated Check (on a % dry matter basis) (kale 'Red Russian' [2]; [9]): −5 % check
